As for `N=C(Nc1cccc([N+](=O)[O-])c1)N1CCCC1`, the melting point was in the range of 117 to 118 °C. The same measure for `CC1(C)CC(=O)c2c(NC3CC3)sc(-c3cc[nH]n3)c2C1`: 232 to 235 °C; for `CCCCc1nc(C(O)C(C)C)c(C(N)=O)n1Cc1ccc(-c2ccccc2C(=O)O)cc1` (stereo not given): more than 131 °C; for `CC(=O)C1(c2ccccc2)CCN(C(=O)C(c2ccccc2)n2cnc3[nH]ncc3c2=S)CC1` (stereo not given): 125 to 128 °C.

The compound `O=C/C=C/C=C/c1ccc(OCC(F)(F)C(F)F)cc1` came in with a melting point of 53 to 55 °C. In the case of `CCOC(=O)C1CN(CC)c2nc(OC)ncc2C1=O` (stereo not given), the melting point was determined as 118 °C.

As to `CCOC(=O)CC(=O)Sc1cc(Cl)c(Cl)cc1Cl`, the melting point fell in the range of 41 to 43 °C. Compound `NC(=O)CN1CCC(c2nn(-c3ccc(C(F)(F)F)cc3)c3cc(F)ccc23)CC1` came in with a melting point of 174 to 176 °C. In the case of `Cc1c(C=CCN)[nH]c(=O)c2c1ccc1nc(Nc3c(Cl)cccc3Cl)n(C)c12`, the melting point is more than 300 °C. On to `CCCCOC(=O)c1ccc(Nc2ncc(C(=O)OCC)c(=O)[nH]2)cc1`, for which the melting point lay in the range of 281 to 283 °C. Compound `Cc1ccc(S(=O)(=O)N(C)c2ccc(Br)cc2[N+](=O)[O-])cc1` registered a melting point of 82.5 to 83.5 °C. As to `Cc1ccc(S(=O)(=O)c2c(N)c3nccn3c3nccnc23)cc1`, the melting point was in the range of 294 to 295 °C. `Cc1cc(Cl)ccc1N1CN(C)CN(C)C1=S` returned a melting point of 103 to 105 °C. The same measure for `Cc1nccn1-c1nc(-c2ccc(Cl)cc2)c(CCC#N)o1`: 163 to 164 °C; for `Cc1nc(Nc2cccc(C(F)(F)F)c2)c2ccccc2c1Cc1ccc(Cl)nc1`: 137 °C. Compound `N#Cc1ccc(OCC(O)CCCl)cc1` (stereo not given) registered a melting point of 78 to 80 °C.

For the compound `CC(C)(C)OC(=O)Nc1ccc([N+](=O)[O-])cc1`, the melting point fell in the range of 112 to 114 °C. Turning to `O=C(O)c1cc(-c2ncc(C(F)(F)F)cc2Cl)ccc1Cl`, the melting point lay in the range of 149 to 151 °C.

The compound `O=C1Cc2ccccc2C(c2ccccc2C(F)(F)F)N1` (stereo not given) registered a melting point of 210 to 212 °C. On to `CC(=O)Oc1c(Cl)nc(-c2ccccc2)nc1Cl`, for which the melting point lay within 145 to 147 °C. On to `c1cc(-n2cnnn2)ccc1SCN1CCOCC1`, for which the melting point fell in the range of 118 to 121 °C. In turn, `COc1cccc([C@H]2O[C@H](CC(=O)NCCc3oc(C(=O)O)cc3C(=O)O)C(=O)N(CC(C)(C)CO)c3ccc(Cl)cc32)c1OC` showed a melting point of 155 to 157 °C. Consider `CC(C)=CCC(C(=O)O)C(=O)O`, for which the melting point was in the range of 96 to 97 °C. In turn, `CCOC(=O)COc1cccc(C(N)=O)c1` showed a melting point of 158 to 159 °C.

Compound `CCc1c(-c2ccc(N3CCN(C)CC3)nn2)ssc1=S` displayed a melting point of 182 °C. In turn, `CCC(CC)Oc1cc(C)nc2c1COCN2c1c(C)cc(Cl)cc1C` showed a melting point of 190 to 192 °C. `CC1(C)C2C=CC3(C)C(C2)C(=O)CCC13O[Si](C)(C)C` (stereo not given) registered a melting point of 73 to 76 °C. The compound `COc1ccc(S(=O)(=O)C(CC=C(C)C)(CC=C(C)C)C(=O)NO)cc1` registered a melting point of 93 to 96 °C.

In turn, `CCCCOC(=O)NCCc1nc(-c2ccc(-c3ccccc3)cc2)c[nH]1` returned a melting point of 137 °C. `COc1cc2c(c(OC)c1/C=C/c1ccc(C=O)cc1)C(C)(C)CCC2(C)C` returned a melting point of 108 °C.

In turn, `CN1C(=O)C(NC(=O)Nc2cccc(Cl)c2)N=C(c2ccccc2)c2ccccc21` (stereo not given) yielded a melting point of 178 to 180 °C. For the compound `CC(c1cccc(NC(=O)NC2N=C(c3ccccc3F)c3ccccc3N(CC(=O)N3CC4CCC(CC4)C3)C2=O)c1)S(=O)(=O)O` (racemic), the melting point was more than 250 °C. Under `CCc1nn(CCO)c(CC)c1Cc1cc(C#N)cc(C#N)c1` stands 115 to 117 °C; under `O=C(Nc1ccccc1O)c1ccc(O)c(Cl)c1`, 172 to 174 °C; under `C=CC(C)(C)C(O)C(Oc1ccc(Cl)cc1)n1ccnc1` (stereo not given), 88 to 90 °C.

The values are drawn from a melting point compilation (Tetko et al.; mined from patent text by program, amines drawn as free bases though some values may be those of a salt).
